Experimental data: ChEMBL document CHEMBL3714742, “Pyrimido (4,5-b) indole derivatives” (2003)
The source made the active and inactive calls. No rule for the calls is given here.

What was measured:
Mus musculus [1] = assay: Inhibition of anti-CD3 antibody-induced IFNgamma production in Balb/c mouse dosed intravenously 5 mins before anti-CD3 antibody injection and measured 2 hrs post-challenge by ELISA; assay type: functional, organism-based
[2] = biological target: T1, Dual specificity mitogen-activated protein kinase kinase 7 (Homo sapiens, UniProt O14733); assay: Inhibition of GST-tagged human MKK7 expressed in Escherichia coli (BL21(DE3) pLysS) co-expressing human MEKK catalytic domain using biotinylated and GST-tagged rat GST-KN-SAPKalpha substrate incubated for 1 hr by time-resolved fluorescence based assay
T1 sequence (O14733 whole entry): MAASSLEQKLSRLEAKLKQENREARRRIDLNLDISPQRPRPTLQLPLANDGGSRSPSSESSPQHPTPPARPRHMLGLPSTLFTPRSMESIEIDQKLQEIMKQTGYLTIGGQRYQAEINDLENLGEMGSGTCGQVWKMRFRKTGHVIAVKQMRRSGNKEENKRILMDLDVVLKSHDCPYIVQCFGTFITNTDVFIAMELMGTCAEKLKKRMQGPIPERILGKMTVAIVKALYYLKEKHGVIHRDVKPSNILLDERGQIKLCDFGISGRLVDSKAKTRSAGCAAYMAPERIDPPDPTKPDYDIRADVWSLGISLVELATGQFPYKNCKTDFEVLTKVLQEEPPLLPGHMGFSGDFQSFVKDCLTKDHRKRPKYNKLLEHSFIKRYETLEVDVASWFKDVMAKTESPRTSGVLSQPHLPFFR

Mus musculus [3] = assay: Inhibition of anti-CD3 antibody-induced IL4 production in Balb/c mouse dosed intravenously 5 mins before anti-CD3 antibody injection and measured 2 hrs post-challenge by ELISA; assay type: functional, organism-based
Mus musculus [4] = assay: Inhibition of anti-CD3 antibody-induced IL2 production in Balb/c mouse dosed intravenously 5 mins before anti-CD3 antibody injection and measured 2 hrs post-challenge by ELISA; assay type: functional, organism-based

SMILES	inhibition (Mus musculus [1])	IC50 [2]	inhibition (Mus musculus [3])	inhibition (Mus musculus [4])
NC(=O)c1ccc2[nH]c3ncnc(NCCO)c3c2c1	Active	< 1 µM	Active	Active
Nc1nc(N2CCC3(CC2)OCCO3)c2c(n1)[nH]c1ccc(O)cc12	Active	< 1 µM	Active	Active
CC(O)CNc1ncnc2[nH]c3ccc(O)cc3c12 (stereo not given)	Active	< 1 µM	Active	Active
O=C(O)C1CCN(c2ncnc3[nH]c4ccc(O)cc4c23)CC1	Active	< 1 µM	Active	Active
Cc1ccc2[nH]c3nc(N)nc(N4CCCCC4)c3c2c1	Active	< 1 µM	Active	Active
NC(=O)c1ccc2[nH]c3ncnc(N4CCC(N)C4)c3c2c1 (stereo not given)	Active	< 1 µM	Active	Active
OCCCNc1ncnc2[nH]c3ccc(O)cc3c12	Active	< 1 µM	Active	Active
COCCNc1ncnc2[nH]c3ccc(O)cc3c12	Active	< 1 µM	Active	Active
CNc1nc(C)nc2[nH]c3ccc(O)cc3c12	Active	1 µM	Active	Active
C[C@H](CO)Nc1ncnc2[nH]c3ccc(O)cc3c12	Active	< 1 µM	Active	Active
NC(=O)c1ccc2[nH]c3ncnc(N4CCC(O)CC4)c3c2c1	Active	< 1 µM	Active	Active
NC(=O)c1ccc2[nH]c3ncnc(NC4CCCC4)c3c2c1	Active	< 1 µM	Active	Active
Oc1ccc2[nH]c3ncnc(N4CCCCC4)c3c2c1	Active	< 1 µM	Active	Active
CC(CO)Nc1ncnc2[nH]c3ccc(C(N)=O)cc3c12 (stereo not given)	Active	< 1 µM	Active	Active
Nc1nc(N2CCC3CCCCC3C2)c2c(n1)[nH]c1ccc(O)cc12 (stereo not given)	Active	< 1 µM	Active	Active
NC(=O)c1ccc2[nH]c3ncnc(N4CCC(CO)CC4)c3c2c1	Active	< 1 µM	Active	Active
CC(C)(C)OC(=O)NC1CCN(c2ncnc3[nH]c4ccc(O)cc4c23)CC1	Active	< 1 µM	Active	Active
Nc1nc(NCc2ccccc2)c2c(n1)[nH]c1ccc(O)cc12	Active	< 1 µM	Active	Active
NCc1ccc2[nH]c3nc(N)nc(N4CCCCC4)c3c2c1	Active	1 µM	Active	Active
Oc1ccc2[nH]c3ncnc(N4CCC[C@@H](O)C4)c3c2c1	Active	< 1 µM	Active	Active
NC(=O)c1ccc2[nH]c3ncnc(N4CCC(CCO)CC4)c3c2c1	Active	< 1 µM	Active	Active
Cc1nc(N2CCCC(CO)C2)c2c(n1)[nH]c1ccc(O)cc12 (stereo not given)	Active	< 1 µM	Active	Active
OCCCCN1CCN(c2ncnc3[nH]c4ccc(O)cc4c23)CC1	Active	< 1 µM	Active	Active
OCCNc1ncnc2[nH]c3ccc(O)cc3c12	Active	< 1 µM	Active	Active
CC1CCCN(c2ncnc3[nH]c4ccc(C(N)=O)cc4c23)C1 (stereo not given)	Active	< 1 µM	Active	Active
